Reference: US20210370019A1, “Method of Treatment Using Negative Pressure Renal Therapy and Medicament(s)” (Strataca Systems Limited, priority 2020, published 2021)
Where two headings read alike, the source gives them in different places.

What was measured:
[1] = test system: congestion heart failure (HF) model; conditions: for diuresis / natriuresis: furosemide diuresis, No-HF; for filtration fraction: furosemide infusion
[2] = cited from earlier work
[3] = test system: animal model of hypervolemic tamponade

SMILES: NS(=O)(=O)c1cc(C(=O)O)c(NCc2ccco2)cc1Cl [furosemide]
- diuresis ([1]; control kidney (no rNPT)): 11.8 ± 3.7 mL/min
- natriuresis ([1]; control kidney (no rNPT)): 1.5 ± 0.5 mmol/min
- diuresis ([1]; rNPT kidney (−30 mmHg)): 19.7 ± 4.5 mL/min
- natriuresis ([1]; rNPT kidney (−30 mmHg)): 2.4 ± 0.6 mmol/min
- filtration fraction ([1]; during rNPT (similar effect between HF and no HF periods)): 55.6±24.8%
- filtration fraction ([1]; without rNPT): 49.0±20.8%
- increase in renal interstitial pressure ([2]; furosemide administration, as reported): ~7 mmHg
- effect on GFR ([2]; known effect of furosemide): can reduce GFR
- decrease in urine output ([3]; tamponade (CVP approx. 20 mm Hg), continued presence of furosemide, compared to mild congestion state of saline loading): −35%
- increase in urine output ([3]; tamponade, negative pressure (−30 mm Hg) in combination with furosemide, beyond the use of diuretics alone): +67%
